# Assay results published in patent US5834453A, “Methods for the manufacture and use of antimicrobial sterol conjugates” (Lehigh University, priority 1997, dated 1998).
# “Also recorded” adds a separate entry of the source.
# Experiments:
# bacteria = test: Loss of antimicrobial/bactericidal action in presence of albumin; format: cell-based; settings: 12.5 μg/ml of SM-7, 40 mg/ml of bovine serum albumin
# S. agalactiae (13813) = test: MIC, micro-broth dilution; format: cell-based; settings: Streptococcus agalactiae, 35° C., 24 hours, read-out: ANTIMICROBIAL ACTIVITY (MIC)
# Method in brief: (§1)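 Micro-broth dilution with 10^6/ml inocula in 0.5× trypticase soy broth, 24 h at 35° C. MIC taken as concentration giving complete growth inhibition; also tested at varied pH, with CaCl₂ or MgCl₂, or with immobilized horse serum.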
# S. epidermidis (12228) = test: MIC, micro-broth dilution; format: cell-based; settings: Staphylococcus epidermidis, 35° C., 24 hours, read-out: ANTIMICROBIAL ACTIVITY (MIC)
# Method in brief: as §1
# S. pyrogenes (19615) = test: MIC, micro-broth dilution; format: cell-based; settings: 24 h, read-out: ANTIMICROBIAL ACTIVITY (MIC)
# Method in brief: as §1
# S. pneumoniae (6305) = test: MIC, micro-broth dilution; format: cell-based; settings: Streptococcus pneumoniae, 35° C., 24 hours, read-out: ANTIMICROBIAL ACTIVITY (MIC)
# Method in brief: as §1
# P. vulgaris (13315) = test: MIC, micro-broth dilution; format: cell-based; settings: Proteus vulgaris, 35° C., 24 hours, read-out: ANTIMICROBIAL ACTIVITY (MIC)
# Method in brief: as §1
# E. faecium (T6480-9) = test: MIC, micro-broth dilution; format: cell-based; settings: Enterococcus faecium, 35° C., 24 hours, read-out: ANTIMICROBIAL ACTIVITY (MIC)
# Method in brief: as §1
# S. marcescens (13880) [1] = test: MIC, micro-broth dilution; format: cell-based
# Method in brief: as §1
# A. fumigatus (H29709) = test: MIC, micro-broth dilution; format: cell-based; settings: Aspergillus fumigatus, 35° C., 24 hours, read-out: ANTIMICROBIAL ACTIVITY (MIC)
# Method in brief: as §1
# P. aeruginosa (10145) = test: MIC, micro-broth dilution; format: cell-based; settings: Pseudomonas aeruginosa, 35° C., 24 hours, read-out: ANTIMICROBIAL ACTIVITY (MIC)
# Method in brief: as §1
# E. cloacae (13047) = test: MIC, micro-broth dilution; format: cell-based; settings: Enterobacter cloacae, 35° C., 24 hours, read-out: ANTIMICROBIAL ACTIVITY (MIC)
# Method in brief: as §1
# C. neoformans (90012) = test: MIC, micro-broth dilution; format: cell-based; settings: Cryptococcus neoformans, 24 h, read-out: ANTIMICROBIAL ACTIVITY (MIC)
# Method in brief: as §1
# S. aureus (29213) [2] = test: MIC, micro-broth dilution; format: cell-based; settings: Staphylococcus aureus, 24 h, read-out: ANTIMICROBIAL ACTIVITY (MIC)
# Method in brief: as §1
# S. aureus (H20809) = test: MIC, micro-broth dilution; format: cell-based; settings: Staphylococcus aureus, 24 h, read-out: ANTIMICROBIAL ACTIVITY (MIC)
# Method in brief: as §1
# A. fumigatus (H1120) = test: MIC, micro-broth dilution; format: cell-based; settings: Aspergillus fumigatus, 35° C., 24 hours, read-out: ANTIMICROBIAL ACTIVITY (MIC)
# Method in brief: as §1
# C. albicans (90028) = test: MIC, micro-broth dilution; format: cell-based; settings: Candida albicans, 35° C., 24 hours, read-out: ANTIMICROBIAL ACTIVITY (MIC)
# Method in brief: as §1
# E. coli (25922) = test: MIC, micro-broth dilution; format: cell-based; settings: Escherichia coli, 35° C., 24 hours, read-out: ANTIMICROBIAL ACTIVITY (MIC)
# Method in brief: as §1
# S. aureus (25923) = test: MIC, micro-broth dilution; format: cell-based; settings: Staphylococcus aureus, 35° C., 24 hours, read-out: ANTIMICROBIAL ACTIVITY (MIC)
# Method in brief: as §1
# C. neoformans (M68979) = test: MIC, micro-broth dilution; format: cell-based; settings: Cryptococcus neoformans, 24 h, read-out: ANTIMICROBIAL ACTIVITY (MIC)
# Method in brief: as §1
# E. faecalis (29212) = test: MIC, micro-broth dilution; format: cell-based; settings: Enterococcus faecalis, 35° C., 24 hours, read-out: ANTIMICROBIAL ACTIVITY (MIC)
# Method in brief: as §1
# P. aeruginosa (2853) [3] = test: MIC, micro-broth dilution; format: cell-based; settings: Pseudomonas aeruginosa, 24 h, read-out: ANTIMICROBIAL ACTIVITY (MIC)
# Method in brief: as §1
# K. pneumoniae (13883) = test: MIC, micro-broth dilution; format: cell-based; settings: Klebsiella pneumoniae, 24 h, read-out: ANTIMICROBIAL ACTIVITY (MIC)
# Method in brief: as §1
# Staphylococcus aureus = test: Bactericidal action; format: cell-based
# gram negative rods [4] = test: Enhancement of the antimicrobial activity of rifampin; format: cell-based; settings: subinhibitory concentrations of SM-7
# Pseudomonas aeruginosa = test: Bactericidal action; format: cell-based
# gram negative rods [5] = test: Antimicrobial activity (MIC), gram negative rods; format: cell-based; settings: of all the mimics tested
# Method: (§2) The antimicrobial activity of the compounds according to the present invention were compared with the results obtained for squalamine as reported in Proc. Nat. Acad. Sci. USA 90:1354 (1993), supra, the disclosure of which is incorporated in toto herein. The data reported in the following table is the minimum inhibitory concentration (MIC) required for complete inhibition of microbial growth. The MIC was determined utilizing known micro-broth dilution methods in which inocula of 10^6 /ml of the test organism were incubated in 0.5× trypticase soy broth at 35° C. for 24 hours. MIC's were also tested under various pH conditions, with calcium chloride or magnesium chloride, or with immobilized horse serum.
# Escherichia coli = test: Bactericidal action; format: cell-based
# [6] = Hemolytic activity, minimal hemolytic concentration (MHC); format: cell-based, sheep; settings: sheep red blood cells, 24 hours at 37° C. in saline
# Method: (§3) Hemolytic activity of the squalamine mimics according to the present invention were also studied by incubating sheep red blood cells for 24 hours at 37° C. in saline (final concentration of 0.5%) with or without respective concentrations of the squalamine mimics. The minimal hemolytic concentration (MHC) was determined as the lowest concentration of a mimic that raised visible hemolysis.
# sheep red blood cells = test: as above; format: cell-based
# Method: as §3
# [7] = system: various groups of microorganisms; test: Antimicrobial activity (MIC), all microorganisms tested; format: cell-based
# Method: as §2
# The numbers in parentheses contained in the table correspond to accession numbers with the American Type Culture Collection (reference strains were either obtained from the American Type Culture Collection or from the Microbiology Laboratory at Memorial Sloan-Kettering Cancer Center; Bacterial strains were maintained on Columbia 5% sheep blood agar plates, and fungi were maintained on Sabouraud Dextrose agar plates).
# S. aureus (29213) [8] = settings: S. aureus ATCC 29213; as reported in the literature; cited from earlier work
# S. marcescens (13880) [9] = settings: known; cited from earlier work
# [10] = system: various groups of microorganisms; settings: broad spectrum of microorganisms; cited from earlier work
# P. vulgaris = P. vulgaris ATCC 13883; as reported in the literature; cited from earlier work
# P. aeruginosa (2853) [11] = settings: P. aeruginosa ATCC 27853; as reported in the literature; cited from earlier work
compound,measurement,setting,value
"C[C@H](CCC(=O)NCCCNCCCCNCCCN)[C@H]1CC[C@H]2[C@@H]3CC[C@@H]4C[C@H](O)CC[C@]4(C)[C@H]3C[C@H](O)[C@]12C [SM-7, deoxycholic acid-spermine conjugate]",inhibition of (bactericidal) activity by albumin,bacteria,completely inhibited
same,MIC,S. agalactiae (13813),3.13 µg/mL
same,MIC,S. epidermidis (12228),0.78 µg/mL
same,MIC,S. pyrogenes (19615),0.78 µg/mL
same,MIC,S. pneumoniae (6305),3.13 µg/mL
same,MIC,P. vulgaris (13315),3.13 µg/mL
same,MIC,E. faecium (T6480-9),6.25 µg/mL
same,MIC,"S. marcescens (13880) [1]; Serratia marcescens, 24 h, read-out: ANTIMICROBIAL ACTIVITY (MIC)",25 µg/mL
same,activity against S. marcescens,S. marcescens (13880) [1]; in words,found even against S. marcescens; also recorded: effective against S. marcescens
same,MIC,A. fumigatus (H29709),12.5 µg/mL
same,MIC,P. aeruginosa (10145),6.25 µg/mL
same,MIC,E. cloacae (13047),12.5 µg/mL
same,MIC,C. neoformans (90012),0.78 µg/mL
same,MIC,S. aureus (29213) [2],1.56 µg/mL
same,MIC,S. aureus (H20809),1.56 µg/mL
same,MIC,A. fumigatus (H1120),12.5 µg/mL
same,MIC,C. albicans (90028),3.13 µg/mL
same,MIC,E. coli (25922),3.13 µg/mL
same,MIC,S. aureus (25923),1.56 µg/mL
same,MIC,C. neoformans (M68979),1.56 µg/mL
same,MIC,E. faecalis (29212),3.13 µg/mL
same,MIC,P. aeruginosa (2853) [3],3.13 µg/mL
same,MIC,K. pneumoniae (13883),3.13 µg/mL
same,antibacterial action (bactericidal),Staphylococcus aureus,bactericidal
same,enhancement of antimicrobial activity of rifampin,gram negative rods [4],markedly enhanced the antimicrobial activity of rifampin against gram negative rods
same,antibacterial action (bactericidal),Pseudomonas aeruginosa,bactericidal
same,potency ranking against gram negative rods,gram negative rods [5],most potent activity against gram negative rods of all the mimics tested
same,antibacterial action (bactericidal),Escherichia coli,bactericidal
same,minimal hemolytic concentration (MHC) at 24 h,[6],12.5 µg/mL
same,hemolytic activity (in words),sheep red blood cells,unwanted hemolytic activity
same,antimicrobial activity (in words),[7],"highly active; also recorded: more activity than SM-8, SM-14, and SM-22"
"CC(C)C(CC[C@@H](C)[C@H]1CC[C@H]2[C@@H]3[C@H](O)C[C@H]4C[C@@H](NCCCNCCCCN)CC[C@]4(C)[C@H]3CC[C@]12C)OS(=O)(=O)O (stereo partly drawn) [squalamine, 3β-N-1-{N-[3-(4-aminobutyl)]-1,3-diaminopropane}-7α,24.zeta.-dihydroxy-5α-cholestane 24-sulfate]",MIC of squalamine,S. aureus (29213) [8],1 to 2 µg/mL
same,resistance of S. marcescens to squalamine,S. marcescens (13880) [9],known to be resistant to squalamine
same,antimicrobial activity of squalamine (in words),[10],potent antimicrobial activity against a broad spectrum of microorganisms
same,MIC of squalamine,P. vulgaris,4 to 8 µg/mL
same,MIC of squalamine,P. aeruginosa (2853) [11],4 to 8 µg/mL
